Results as given in patent US9023767B2, “γ-Secretase substrates and methods of use” (Memorial Sloan-Kettering Cancer Center, priority 2009, dated 2015).
Like-named read-outs stand apart in the source and are kept apart here.

Assays:
γ-secretase [1] = molecular target: γ-secretase (Homo sapiens (Human), UniProt P49768); experiment: HTRF γ-secretase assay with Sb4 substrate; assay type: biochemical
Source text: We set out to transfer the assay conditions obtained with the ECL method to an HTRF detection based format (FIG. 10b). The HTRF detection mixture consisted of mouse G2-10 antibody for recognition of the C-terminal epitope of the cleaved product, a Europium-labeled anti-mouse antibody (commonly, an antibody is conjugated with a cryptate ligand that forms a three dimensional coordination cage structure surrounding a lanthanide such as Eu^3+), along with Streptavidin conjugated to a trimeric form of the fluorescent protein allophycocyanin referred to as XL665. Cleavage of Sb4 substrate allows G2-10 mouse antibody to bind to the Aβ40-processed site on the cleaved substrate. The Steptavidin-XL665 conjugate binds directly with the biotin moiety on the N-terminal end of the Sb4 derived product. The anti-mouse Europium antibody targets to the G2-10 antibody, bringing all of these entities into close proximity. The Europium and XL665 reagents are a compatible pair of donor-acceptor fluorophores, and excitation of Europium at 337 nm results in fluorescence energy resonance transfer (FRET) to XL665 which fluoresces at 665 nm (FIG. 10b).
Human γ-secretase was prepared from HeLa cell membranes as described previously (Li et al., 2000). Briefly, HeLa cell pellet was resuspended in 1×MES buffer (50 mM MES, pH 6.0, 150 mM KCl, 5 mM CaCl2, 5 mM MgCl2) and treated with ‘complete’ protease inhibitor (Boehringer Mannheim). The resuspended pellet was mechanically homogenized by passing the cells through the French Press (Spectronic Instruments), and subsequently spun down at 800 g to remove cell debris and nuclei. Next, the supernatants were spun at 100,000 g in order to pellet the membranes. The pelleted membranes were resuspended in 1×MES buffer to approximately 12 mg/ml. This entire procedure was performed at 4° C. HeLa membranes were solubilized using 1% CHAPSO detergent in 1×MES buffer with protease inhibitors. After incubating for 1 hr at 4° C., the membrane was spun down at 100,000 g and the supernatants were collected and stored at −70° C. The collected fraction is defined as solubilized γ-secretase.
HTRF conditions were initially optimized in a 384-well format using a final volume of 20 μl. The high control for this assay was defined as the observed γ-secretase activity in the presence of 1% DMSO (v/v) and the low control as the activity observed when including 100 nM final concentration of Compound E (v/v). First, we determined a tolerable DMSO concentration that would not interfere with γ-secretase activity. Even with 3% DMSO (v/v) present in the assay mixture, there was virtually no effect on the γ-secretase activity (FIG. 11a), which was critical as delivery of library screening compounds required a final concentration of 2% DMSO (v/v) in the γ-secretase reaction. Next, we titrated the HTRF mixture components in an effort to minimize reagent costs for use in high throughput screening. […] Additionally, we varied Europium conjugated anti-mouse antibody and determined that 1 nM of this reagent in the HTRF mixture was sufficient for our assay conditions even though the signal continued to increase with higher concentrations of the anti-mouse antibody (FIG. 11c).
We have further miniaturized the HTRF assay from the established 384-well format to a 1536-well platform enabling more efficient screening of large chemical libraries. […] Based on these optimization experiments, we set our final assay conditions at 0.3 nM G2-10, 1 nM anti-mouse antibody, 15 nM Streptavidin-XL665, and proceeded with the assay at 10 μl final volume (5 μl γ-secretase mix+5 μl HTRF mix) in the 1536-well format for screening.
The pilot assay was performed in duplicate on two separate days to account for any day-to-day variability. […]

γ-secretase [2] = molecular target: γ-secretase (Mus musculus (Mouse), UniProt P49769); experiment: Cell-based activity assay, N2A cells stably over-expressing APP
Procedure: The potency of two structurally different GSIs was assayed in four unique γ-secretase activity assays. IC50 values were determined from the dose response curves using a non-linear regression analysis in the Prism software. An in vitro assay was based on the one previously reported by Li et al. (2000), except we utilized Sb4 substrate that eliminated the need for biotinylated antibody. The cell-based activity assay used N2A mouse neuroblastoma cells stably over-expressing APP and a biotinylated 4G8 antibody that binds the C-terminus of the amyloid beta peptide. The exo-cell assay incubated HeLa cells simultaneously with GSI, Sb4 substrate as well as 0.25% CHAPSO detergent prior to detecting substrate cleavage. Finally, the extended exo-cell assay first incubated HeLa cells with GSI for 24 hrs. Subsequently, the cells were washed 1× in PBS and then incubated with Sb4 substrate and CHAPSO detergent. The assay was then carried out exactly as described for the original exo-cell method. All assays incorporate ruthenylated G2-10* antibody to detect 40-site cleavage of APP or recombinant Sb4 substrate and quantitated activity by measuring ECL. The latter assays were performed as previously described (Li et al., 2000). In the in vitro assay, recombinant Sb4 substrate was incubated for 2.5 hours at 37° C. in pH 7.0 PIPES buffer in the presence of 0.25% CHAPSO detergent and solubilized γ-secretase at a final concentration of 40 ng/ul. The detection of cleaved substrate was determined using ruthenylated G2-10* antibody. Since the Sb4 substrate is biotinylated additional 6E10 biotinylated antibody used in earlier assays is not required. In the cell-based assay, N2A mouse neuroblastoma cells that stably overexpress amyloid precursor protein were incubated with γ-secretase inhibitors in a final concentration of 1% DMSO for 24 hrs. Following incubation, the supernatant was removed from the cells and assayed for Aβ40, the cleaved APP product, using ruthenylated G2-10* antibody as well as biotinylated 4G8 antibody.

A20 mouse lymphoma cells = experiment: Lymphoma cell proliferation assay, [3H]thymidine incorporation; assay type: cell-based; details: 48 hours
Procedure: For a lymphoma cell proliferation assay, A20 mouse lymphoma cells were seeded in a 96-well plate at a concentration of 5×10^5 cells/ml in 100 μl RPMI media containing 2% fetal bovine serum. An additional 100 μl of media containing DMSO or γ-secretase inhibitor was added and incubated for 48 hours at 37° C. After this incubation, the cells were incubated for 5 hours with 2 μCi/ml [^3H]thymidine at 37° C. Proliferative response was then evaluated by harvesting the tritiated DNA from cells using a Skatron cell harvester and proliferation assessed as a function of [^3H]thymidine incorporation measured on a β-counter.

CC(NC(=O)Cc1cc(F)cc(F)c1)C(=O)NC1N=C(c2ccccc2)c2ccccc2N(C)C1=O (stereo not shown) [Compound E]
IC50 (γ-secretase [1]): 1.1 nM
IC50 (γ-secretase [2]; 24 hrs, Aβ40; read-out: Cell-based (nM), IC50): 4.6 nM
IC50 (γ-secretase [2]; read-out: Cell-based (nM), IC50; 24 hrs, Aβ40): 4.6 nM
inhibition of cellular proliferation (A20 mouse lymphoma cells): able to inhibit cellular proliferation
